Assay results: patent US20240132511A1, “TREATMENTS OF PRADER-WILLI SYNDROME” (Neuren Pharmaceuticals Limited, priority 2021, published 2024)

Experiments:
Magel2-null mice [1] = assay: Fat mass in female Magel2-null mice; assay type: in vivo, mouse; design: key: **** = p < 0.0001; ns = not significant
Experimental: (§1) In vivo experiments were conducted in C57BL/6-Magel2tm1Stw/J (Magel2-null) mice at age P60 and their wild-type littermates during the light phase (littermates that were wild-type for Magel2 were used as controls). Ten mice per treatment group were used for studies 1 and 2, and six mice per group for study 3. In study 1: C57BL/6-Magel2tm1Stw/J (Magel2-null) mice were assessed on behavioral assays. Study 2 tested the efficacy of cG-2-AllylP in treating obesity and insulin levels in Magel2-null mice. Study 3 tested the IGF-1 level in Magel2-null mice. Because human beings have the same genetic abnormality, studies of Magel2-null mice are reasonably predictive of effects of compounds of Formulas I, II, III and IV in human beings with Prader-Willi Syndrome.
(§2) Testing was performed during the light phase of the circadian cycle, with the order of testing being determined by the principle of conducting the most stressful tests last. Assays were designed to reproduce and expand on the original behavioral characterization of Magel2-null mice. Magel2-null and wild-type control mice were dosed once daily for 6 weeks prior to testing and tested 30 minutes following a dose of cG-2-AllylP (NNZ2591). Study groups and the treatment matrix are described in Table 2 below.
Prader-Willi Syndrome is associated with metabolic and hormonal abnormalities in humans. Magel2-null mice recapitulate some of the metabolic and hormonal aspects of humans with Prader-Willi Syndrome. Experiments were conducted to determine if cG-2-AllylP could have a normalizing effect in metabolic and hormonal aspects.
Because female Magel2-null mice present a significant increase in body weight compared with their littermate wild-type controls, female Magel2-null mice were used for this study.

Magel2-null mice [2] = assay: Open Field hypoactivity (distance travelled, time spent active); assay type: in vivo, mouse; design: key: **** = p < 0.0001; ns = not significant
Excerpt: (§3) The mouse locus 7qB4/B5 (syntenic with the Prader-Willi region at chromosome position 15q11-q13 in humans) encompasses the cluster of paternally-expressed imprinted genes Magel2, Ndn, Mkrn3, and Peg12. As maternal imprinting silences the Magel2 allele, only the paternally inherited Magel2 allele is expressed. Heterozygous females were bred with wild-type males (or C57BL/6J inbred males) to maintain the line; as the resulting offspring will have no abnormal phenotype. To obtain “Magel2-null” offspring (both maternal and paternal Magel2 alleles are non-functional), wild-type females are bred with heterozygous males; allowing maternal transmission of the imprinted/silenced wild-type allele and paternal transmission of the Magel2-lacZ (null) allele. Magel2-null mice have disrupted circadian rhythm and metabolism, total activity, food consumption, weight before weaning, and fertility in both sexes, as well as increased adiposity after weaning and altered behavior. Magel2-null mice on this C57BL/6J genetic background recapitulate Prader-Willi syndrome. Because the genetic mutation in the Magel2-null animals is the same as the mutation in human beings, studies in Magel2-null mice are reasonably predictive of effects of compounds in human beings.
as §1, §2
To evaluate whether cG-2-AllylP is effective to treat the hypoactivity in PWS, Open Field studies were carried out.
The relative distance travelled or time spent active is shown on the vertical axis, and the mean of each treatment group is shown on the horizontal axis. Wild-type (WT) mice treated with vehicle alone (left column) were considered to travel 100% or to have 100% activity.

Magel2-null mice [3] = assay: Novel Object Recognition (NOR); assay type: in vivo, mouse; design: key: **** = p < 0.0001; ns = not significant
Excerpt: as §3, §1, §2
The NOR test is used to evaluate cognition, based on the tendency for mice to spend more time exploring a novel object that a familiar object. Magel2-null mice display a lack of discrimination between known and novel objects.

Magel2-null mice [4] = assay: Elevated Plus Maze (time in open arms); assay type: in vivo, mouse; design: key: **** = p < 0.0001; ns = not significant
Excerpt: as §3, §1, §2
The Elevated Plus Maze test is used to assess anxiety related behaviors. Normal mice show a preference for being in closed arms over open arms.

Magel2-null mice [5] = assay: Partition test of social preference; assay type: in vivo, mouse; design: key: **** = p < 0.0001; ns = not significant
Excerpt: as §3, §1, §2
People with Prader-Willi Syndrome show deficits in social behavior compared with people without Prader-Willi Syndrome. Two tests were carried out to assess the social behavior deficits of Magel2-null mice.
The partition test of social preference measures the preference shown for an object versus a familiar mouse.

[6] = Magel2-null + Vehicle vs. Magel2-null + NNZ2591 (100 mg/kg)
[7] = Magel2-null + Vehicle vs. Magel2-null + NNZ2591 (200 mg/kg)
[8] = WT + NNZ2591 (200 mg/kg) vs. Magel2-null + NNZ2591 (200 mg/kg)
[9] = WT + Vehicle vs. WT + NNZ2591 (100 mg/kg)
[10] = WT + Vehicle vs. WT + NNZ2591 (200 mg/kg)
[11] = Magel2-null + NNZ2591 (100 mg/kg) vs. Magel2-null + NNZ2591 (200 mg/kg)
[12] = WT + NNZ2591 (100 mg/kg) vs. Magel2-null + NNZ2591 (100 mg/kg)
[13] = WT + NNZ2591 (100 mg/kg) vs. Magel2-null + NNZ2591 (200 mg/kg)

C=CCC12CCCN1C(=O)CNC2=O [cG-2-AllylP, (8aS)-Allyl-hexahydropyrrolo[1,2-a]pyrazine-1,4-dione]
Effect on fat mass, Sidak's multiple comparisons test, Summary (Magel2-null mice [1]; [6]): ns
Effect on fat mass, Sidak's multiple comparisons test, Summary (Magel2-null mice [1]; [7]): **** (**** = p < 0.0001)
Effect on fat mass, Sidak's multiple comparisons test, Summary (Magel2-null mice [1]; [8]): ns
Effect on fat mass, Sidak's multiple comparisons test, Summary (Magel2-null mice [1]; [9]): ns
Effect on fat mass, Sidak's multiple comparisons test, Summary (Magel2-null mice [1]; [10]): ns
Open Field (Hypoactivity) - Motility, Sidak's multiple comparisons test, Summary (Magel2-null mice [2]; [11]): ns
Open Field (Hypoactivity) - Distance travelled, Sidak's multiple comparison test, Summary (Magel2-null mice [2]; [6]): **** (**** = p < 0.0001)
Open Field (Hypoactivity) - Distance travelled, Sidak's multiple comparison test, Summary (Magel2-null mice [2]; [7]): **** (**** = p < 0.0001)
Open Field (Hypoactivity) - Motility, Sidak's multiple comparisons test, Summary (Magel2-null mice [2]; [7]): **** (**** = p < 0.0001)
Open Field (Hypoactivity) - Motility, Sidak's multiple comparisons test, Summary (Magel2-null mice [2]; Magel2-null + Vehicle vs. WT + NNZ2591 (100 mg/kg)): **** (**** = p < 0.0001)
Open Field (Hypoactivity) - Distance travelled, Sidak's multiple comparison test, Summary (Magel2-null mice [2]; [12]): ns
Open Field (Hypoactivity) - Motility, Sidak's multiple comparisons test, Summary (Magel2-null mice [2]; [12]): ns
Open Field (Hypoactivity) - Distance travelled, Sidak's multiple comparison test, Summary (Magel2-null mice [2]; [13]): ns
Open Field (Hypoactivity) - Distance travelled, Sidak's multiple comparison test, Summary (Magel2-null mice [2]; [8]): ns
Open Field (Hypoactivity) - Motility, Sidak's multiple comparisons test, Summary (Magel2-null mice [2]; [8]): ns
Open Field (Hypoactivity) - Distance travelled, Sidak's multiple comparison test, Summary (Magel2-null mice [2]; [9]): ns
Open Field (Hypoactivity) - Motility, Sidak's multiple comparisons test, Summary (Magel2-null mice [2]; [9]): ns
Open Field (Hypoactivity) - Distance travelled, Sidak's multiple comparison test, Summary (Magel2-null mice [2]; [10]): ns
Open Field (Hypoactivity) - Motility, Sidak's multiple comparisons test, Summary (Magel2-null mice [2]; [10]): ns
Novel object recognition, Sidak's multiple comparisons test, Summary (Magel2-null mice [3]; [11]): ns
Novel object recognition, Sidak's multiple comparisons test, Summary (Magel2-null mice [3]; [7]): **** (**** = p < 0.0001)
Novel object recognition, Sidak's multiple comparisons test, Summary (Magel2-null mice [3]; [12]): ns
Novel object recognition, Sidak's multiple comparisons test, Summary (Magel2-null mice [3]; [8]): ns
Novel object recognition, Sidak's multiple comparisons test, Summary (Magel2-null mice [3]; [9]): ns
Novel object recognition, Sidak's multiple comparisons test, Summary (Magel2-null mice [3]; [10]): ns
Elevated plus maze (time in open arm), Sidak's multiple comparisons test, Summary (Magel2-null mice [4]; [6]): **** (**** = p < 0.0001)
Elevated plus maze (time in open arm), Sidak's multiple comparisons test, Summary (Magel2-null mice [4]; [7]): **** (**** = p < 0.0001)
Elevated plus maze (time in open arm), Sidak's multiple comparisons test, Summary (Magel2-null mice [4]; [12]): ns
Elevated plus maze (time in open arm), Sidak's multiple comparisons test, Summary (Magel2-null mice [4]; [8]): ns
Elevated plus maze (time in open arm), Sidak's multiple comparisons test, Summary (Magel2-null mice [4]; WT + Vehicle vs WT + NNZ2591 (100 mg/kg)): ns
Elevated plus maze (time in open arm), Sidak's multiple comparisons test, Summary (Magel2-null mice [4]; [10]): ns
Social preference, Sidak's multiple comparisons test, Summary (Magel2-null mice [5]; [6]): **** (**** = p < 0.0001)
Social preference, Sidak's multiple comparisons test, Summary (Magel2-null mice [5]; [7]): **** (**** = p < 0.0001)
Social preference, Sidak's multiple comparisons test, Summary (Magel2-null mice [5]; [12]): ns
Social preference, Sidak's multiple comparisons test, Summary (Magel2-null mice [5]; [13]): ns
Social preference, Sidak's multiple comparisons test, Summary (Magel2-null mice [5]; [8]): ns
Social preference, Sidak's multiple comparisons test, Summary (Magel2-null mice [5]; [9]): ns
Social preference, Sidak's multiple comparisons test, Summary (Magel2-null mice [5]; [10]): ns
melting point: 106 to 109 °C
